The source made the active and inactive calls. The calls are words filed in the database; no cut-off is given here. Some results are limits rather than exact numbers.

A short description of series [1]: Inhibition of HCV genotype 1b NS5B replicase expressed in Escherichia coli BL21(DE3) using polyA/biotinylated oligo(dT12) as template/primer in presence of [3H]UTP after 60 mins by SPA assay. Details: species or system Hepatitis C virus subtype 1b.
Series [2] deals with Hepatitis C virus. The experiment in a line: Antiviral activity against HCV genotype 1b infected in human HuH7 cells after 3 days by luciferase reporter assay. It is filed as functional, cell-based, Hepacivirus hominis. On the technique in general: In a reporter assay the amount or activity of a reporter protein is the signal.
Series [3] deals with Hepatitis C virus. The experiment in a line: Antiviral activity against HCV genotype 1a infected in human HuH7 cells after 3 days by luciferase reporter assay. It is filed as functional, cell-based, Hepacivirus hominis, subtype 1a.
Series [4] can be described thus: Inhibition of HCV genotype 1b NS5B replicase C316N mutant infected in human HuH7 cells assessed as reduction of viral replication after 3 days by luciferase reporter assay. The note with it: Hepatitis C virus, Huh-7, 72 h. The series is classed as cell-based, Hepatitis C virus subtype 1b.
Series [5] is described as follows: Metabolic stability in human liver microsomes assessed as parent compound remaining after 10 mins. It is filed as ADME, microsome. To be noted: read-out: Stability. (Microsomes from liver hold many membrane-bound enzymes, among them those of drug oxidation.)
A short description of series [6]: Metabolic stability in rat liver microsomes assessed as parent compound remaining after 10 mins. It is filed as ADME, microsome. To be noted: read-out: Stability.
The target in a further series is T1, Cytochrome P450 2C8 (Homo sapiens, UniProt P10632).
T1 sequence (P10632 whole entry): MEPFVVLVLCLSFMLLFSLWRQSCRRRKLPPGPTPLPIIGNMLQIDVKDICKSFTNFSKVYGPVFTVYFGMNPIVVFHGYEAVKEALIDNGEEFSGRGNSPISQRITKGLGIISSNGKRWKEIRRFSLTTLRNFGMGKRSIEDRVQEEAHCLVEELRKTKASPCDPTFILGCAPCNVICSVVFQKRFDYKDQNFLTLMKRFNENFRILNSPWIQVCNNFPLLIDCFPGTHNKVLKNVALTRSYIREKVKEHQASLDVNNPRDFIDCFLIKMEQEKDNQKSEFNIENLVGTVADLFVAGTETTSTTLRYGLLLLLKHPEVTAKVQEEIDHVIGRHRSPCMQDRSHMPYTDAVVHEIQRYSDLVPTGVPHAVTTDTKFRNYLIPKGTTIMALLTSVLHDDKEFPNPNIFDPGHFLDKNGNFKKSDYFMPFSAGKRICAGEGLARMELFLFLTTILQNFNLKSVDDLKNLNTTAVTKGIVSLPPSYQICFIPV
The experiment in a line: Inhibition of microsomal CYP2C8 (unknown origin). The series is classed as ADME.

The target in another series is Cytochrome P450 3A4 (Homo sapiens, UniProt P08684). The experiment in a line: Inhibition of microsomal CYP3A4 (unknown origin). The series is classed as ADME.
Series [7] has as its system Hepatitis C virus. The experiment in a line: Antiviral activity against HCV genotype 1b infected in human HuH7 cells at >= 10 times antiviral EC50 after 3 days by luciferase reporter assay. To be noted: Hepacivirus hominis. It is filed as functional, cell-based.
In series [8] the test system is Hepatitis C virus. The experiment in a line: Antiviral activity against HCV genotype 1b infected in human HuH7 cells co-treated with daclatasvir after 3 days by luciferase reporter assay. The series is classed as functional, cell-based. The note with it: Hepacivirus hominis.
The nature of series [9]: Half life in rat liver microsomes. The series is classed as ADME, microsome.
Series [10] in a line: Half life in monkey liver microsomes. The series is classed as ADME, Macaca mulatta, microsome. To be noted: rhesus monkey.
The nature of series [11]: Cytotoxicity against human HuH7 cells after 3 days by CellTiter-Blue assay. It is filed as cell-based, Huh-7. (In general: The colour change of resazurin is a common sign of viable cells or microbes.)
The nature of series [12]: Half life in human liver microsomes. The series is classed as ADME, microsome.
[13] abbreviates: Hepatitis C virus, genotype 1b, Huh-7, 72 h, read-out: EC50.
The mark [14] stands for this setting: Hepatitis C virus, subtype 1a, Huh-7, 72 h, read-out: EC50.

Sequence of Cytochrome P450 3A4 (P08684 whole entry): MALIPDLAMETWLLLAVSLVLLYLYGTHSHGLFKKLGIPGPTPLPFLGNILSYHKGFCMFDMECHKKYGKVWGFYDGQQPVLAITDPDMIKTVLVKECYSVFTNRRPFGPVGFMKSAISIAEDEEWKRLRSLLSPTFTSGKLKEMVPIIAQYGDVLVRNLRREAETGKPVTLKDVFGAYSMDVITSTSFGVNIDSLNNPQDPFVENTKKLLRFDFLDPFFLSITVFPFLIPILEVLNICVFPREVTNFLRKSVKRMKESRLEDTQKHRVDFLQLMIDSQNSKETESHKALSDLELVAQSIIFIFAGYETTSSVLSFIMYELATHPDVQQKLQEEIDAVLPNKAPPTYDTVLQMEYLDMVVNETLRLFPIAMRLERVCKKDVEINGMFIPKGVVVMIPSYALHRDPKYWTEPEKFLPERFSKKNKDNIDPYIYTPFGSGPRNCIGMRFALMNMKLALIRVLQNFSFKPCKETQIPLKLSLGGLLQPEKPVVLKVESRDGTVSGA

The term IC50 denotes the concentration at which inhibition is half-maximal. Usually EC50 stands for the concentration that produces a half-maximal response. Consider `CNC(=O)c1c(-c2ccc(F)cc2)oc2ccc(-c3cccc(C(=O)NC(C)(C)c4ccccc4)c3)cc12`, for which, in series [1], the IC50 worked out at 8 nM. The EC50 came out at 10 nM with Hepatitis C virus [2] (setting [13]) and 160 nM in the series on Hepatitis C virus [3] (setting [14]).

In the case of `CNC(=O)c1c(-c2ccc(F)cc2)oc2ccc(-c3ccc(C(=O)O)s3)cc12`, the IC50 in [1] is 360 nM.

On to `CNC(=O)c1c(-c2ccc(F)cc2)oc2ccc(-c3cc(C(=O)NC4(c5ccncc5)CC4)ccc3C)cc12`, for which the EC50 in [4] was 63 nM; with Hepatitis C virus [2] (setting [13]), 0.83 nM; in the series on Hepatitis C virus [3] (setting [14]), 8.3 nM. Also, the remaining at 10 min in series [5] and in [6] was 11% each time. For the same molecule, the 50% inhibitory concentration (IC50) stood at 26 nM against Cytochrome P450 2C8 and 73 nM against Cytochrome P450 3A4.

Turning to `CNC(=O)c1c(-c2ccc(F)cc2)oc2ccc(-c3cc(C(=O)NC4(c5ccccc5)CC4)ccc3F)cc12`, the EC50 in series [4] stood at 150 nM; in the series on Hepatitis C virus [2] (setting [13]), 3.6 nM; in the series on Hepatitis C virus [3] (setting [14]) it was 16 nM.

As for `CNC(=O)c1c(-c2ccc(F)cc2)oc2ccc(-c3ccc(C(=O)O)cc3)cc12`, the IC50 in series [1] worked out at 650 nM. Further, the EC50 was 4500 nM in the series with Hepatitis C virus [2] (setting [13]) and above 20000 nM with Hepatitis C virus [3] (setting [14]).

For `C=C[C@@H]1C[C@]1(NC(=O)[C@@H]1C[C@@H](Oc2ncc(OC)c3ccc(Cl)cc23)CN1C(=O)[C@@H](NC(=O)OC(C)(C)C)C(C)(C)C)C(=O)NS(=O)(=O)C1CC1`, the outcome with Hepatitis C virus [7] and in the series on Hepatitis C virus [8] was Active.

With `CNC(=O)c1c(-c2ccc(F)cc2)oc2ccc(-c3cccc(C(=O)NC(C)c4ccccc4)c3)cc12` (configuration not stated), the IC50 in series [1] was 26 nM. Besides, the EC50 in the series with Hepatitis C virus [2] (setting [13]) turned out to be 54 nM; in the series on Hepatitis C virus [3] (setting [14]), 600 nM.

Consider `CNC(=O)c1c(-c2ccc(F)cc2)oc2ccc(-c3cccc(C(=O)N(C)C(C)(C)C)c3)cc12`, for which the IC50 in series [1] was determined as 120 nM. Moreover, the values for the EC50 in the series on Hepatitis C virus [2] (setting [13]) and with Hepatitis C virus [3] (setting [14]) were 76 nM and 1400 nM, respectively.

By half-life is commonly meant how long it takes for the measured level to halve. Take `CNC(=O)c1c(-c2ccc(F)cc2)oc2ccc(-c3cc(C(=O)NC4(c5nc(C)no5)CC4)ccc3C)cc12`: the EC50 in [4] worked out at 46 nM; in the series on Hepatitis C virus [2] (setting [13]) it was 0.81 nM; in the series with Hepatitis C virus [3] (setting [14]), 1.2 nM. Besides, the half-life is 10 min in series [9] and 25 min in series [10].

In the case of `CNC(=O)c1c(-c2ccc(F)cc2)oc2ccc(-c3cccc(C(=O)NC(C)(C)C)c3)cc12`, in series [1], the IC50 worked out at 41 nM. The EC50 is 18 nM in the series on Hepatitis C virus [2] (setting [13]) and 240 nM with Hepatitis C virus [3] (setting [14]).

For the molecule `CNC(=O)c1c(-c2ccc(F)cc2)oc2ccc(-c3cc(C(=O)NC4(c5cccnn5)CC4)ccc3C)cc12`, the EC50 in [4] came out at 139 nM; with Hepatitis C virus [2] (setting [13]) it was 2.9 nM; in the series on Hepatitis C virus [3] (setting [14]), 17 nM.

Regarding `CCNC(=O)c1cccc(-c2ccc3oc(-c4ccc(F)cc4)c(C(=O)NC)c3c2)c1`, in [1], the IC50 is 780 nM. Besides, the EC50 came out at 330 nM with Hepatitis C virus [2] (setting [13]) and 1000 nM in the series with Hepatitis C virus [3] (setting [14]).

For `CNC(=O)c1c(-c2ccc(F)cc2)oc2ccc(-c3ccccc3C(=O)O)cc12`, in series [1], the IC50 was above 50000 nM.

Consider `CNC(=O)c1c(-c2ccc(F)cc2)oc2ccc(-c3cc(C(=O)NC4(c5ccccc5)CC4)ccc3OC)cc12`, for which the values for the EC50 (in [4]; in the series on Hepatitis C virus [2] (setting [13]); with Hepatitis C virus [3] (setting [14])) were 32 nM, 1.8 nM and 7.9 nM, respectively.

As a reminder, the CC50 is the concentration at which the toxic effect on the cells reaches its halfway point. In the case of `CNC(=O)c1c(-c2ccc(F)cc2)oc2ccc(-c3cc(C(=O)NC4(c5ccccc5)CC4)ccc3C)cc12`, in series [11], the CC50 at 72 h is above 25000 nM. In addition, the EC50 in series [4] was found to be 35 nM; in the series with Hepatitis C virus [2] (setting [13]), 1.3 nM; in the series on Hepatitis C virus [3] (setting [14]), 2.1 nM. Moreover, the remaining at 10 min in [5] was 68%; in series [6], 39%. Further, the half-life in [12] was 11 min. Besides, the results for the IC50 at Cytochrome P450 2C8 and against Cytochrome P450 3A4 were 1500 nM and 2100 nM, respectively.

On to `CNC(=O)c1c(-c2ccc(F)cc2)oc2ccc(-c3cc(C(=O)NC4(c5cnccn5)CC4)ccc3C)cc12`, for which the values for the EC50 (in series [4]; with Hepatitis C virus [2] (setting [13]); with Hepatitis C virus [3] (setting [14])) were 308 nM, 2.6 nM and 15 nM, respectively.

As to `CNC(=O)c1c(-c2ccc(F)cc2)oc2ccc(-c3cc(C(=O)NC4(c5cccnc5)CC4)ccc3C)cc12`, the figures for the EC50 (in series [4]; in the series on Hepatitis C virus [2] (setting [13]); with Hepatitis C virus [3] (setting [14])) were 193 nM, 2.2 nM and 17 nM, respectively. In addition, the remaining at 10 min worked out at 0.7% in series [5] and 0.6% in series [6]. The IC50 at Cytochrome P450 2C8 is 350 nM; at Cytochrome P450 3A4 it was 63 nM.

With `CNC(=O)c1c(-c2ccc(F)cc2)oc2ccc(-c3cccc(C(=O)NCc4ccccc4)c3)cc12`, the IC50 in series [1] was found to be 91 nM. For the same molecule, the EC50 was determined as 67 nM in the series with Hepatitis C virus [2] (setting [13]) and 1800 nM in the series on Hepatitis C virus [3] (setting [14]).

In the case of `CNC(=O)c1c(-c2ccc(F)cc2)oc2ccc(-c3cc(C(=O)NC4(c5ccccc5)CC4)ccc3Cl)cc12`, the EC50 in [4] amounted to 63 nM; with Hepatitis C virus [2] (setting [13]), 2.5 nM; in the series with Hepatitis C virus [3] (setting [14]), 6.2 nM.

For the molecule `CNC(=O)c1c(-c2ccc(F)cc2)oc2ccc(-c3cccc(C(N)=O)c3)cc12`, the IC50 in series [1] stood at 5700 nM. Moreover, the EC50 in the series with Hepatitis C virus [2] (setting [13]) is above 3700 nM.

For `CNC(=O)c1c(-c2ccc(F)cc2)oc2ccc(-c3cccc(C(=O)O)c3)cc12`, the IC50 in [1] was found to be 1100 nM. The EC50 with Hepatitis C virus [2] (setting [13]) is 12000 nM; with Hepatitis C virus [3] (setting [14]) it was above 20000 nM.

With `CNC(=O)c1c(-c2ccc(F)cc2)oc2ccc(-c3cccc(C(=O)NC4(c5ccccc5)CC4)c3)cc12`, in series [1], the IC50 is 5.9 nM. Also, the EC50 with Hepatitis C virus [2] (setting [13]) is 3.6 nM; in the series with Hepatitis C virus [3] (setting [14]), 36 nM.

Take `CNC(=O)c1c(-c2ccc(F)cc2)oc2ccc(-c3cccc(C(=O)OC)c3)cc12`: in series [1], the IC50 is above 50000 nM.

Turning to `CNC(=O)c1c(-c2ccc(F)cc2)oc2ccc(-c3ccc(C(=O)NC(C)(C)C)cc3)cc12`, the half-maximal inhibitory concentration (IC50) in [1] stood at 3600 nM. In addition, the EC50 with Hepatitis C virus [2] (setting [13]) is 980 nM.

With `CNC(=O)c1c(-c2ccc(F)cc2)oc2ccc(-c3cc(C(=O)NC4(c5ccncn5)CC4)ccc3C)cc12`, the results for the EC50 (in series [4]; in the series with Hepatitis C virus [2] (setting [13]); in the series with Hepatitis C virus [3] (setting [14])) were 109 nM, 1.9 nM and 13 nM, respectively.

Take `CNC(=O)c1c(-c2ccc(F)cc2)oc2ccc(-c3cccc(CO)c3)cc12`: the IC50 in series [1] was above 50000 nM.

For the molecule `CNC(=O)c1c(-c2ccc(F)cc2)oc2ccc(-c3cccc(C(=O)NC(C)C)c3)cc12`, the IC50 in series [1] is 190 nM. Besides, the concentration for a half-maximal effect (EC50) in the series with Hepatitis C virus [2] (setting [13]) is 98 nM; in the series with Hepatitis C virus [3] (setting [14]), 630 nM.

Consider `O=C(Nc1c(OCc2ccc(Cl)cc2)cccc1C(=O)O)c1ccccc1`, for which the IC50 in series [1] worked out at 8400 nM. Besides, the EC50 entry with Hepatitis C virus [2] and in the series on Hepatitis C virus [3] was “Not Active” each time.

For the molecule `CNC(=O)c1c(-c2ccc(F)cc2)oc2ccc(OC(C)C)cc12`, the IC50 in series [1] came to 21000 nM. The half-maximal effective concentration (EC50) in the series with Hepatitis C virus [2] (setting [13]) was 14000 nM; in the series on Hepatitis C virus [3] (setting [14]), above 11000 nM.

These data come from ChEMBL document CHEMBL4014311, “Discovery of a Hepatitis C Virus NS5B Replicase Palm Site Allosteric Inhibitor (BMS-929075) Advanced to Phase 1 Clinical Studies” (J Med Chem, 2017).
